Measurements as given in patent US6670345B1 (Dabur Research Foundation, priority 1997, dated 2003).
≈ marks a conversion by molar mass, not a printed value.

Columns and labels:
Conditions in all cases: 72 hours
human larynx (HeP.2) = experiment: MTT cytotoxicity assay, human larynx (HeP.2); assay type: cell-based
Method: (§1) After 72 hours, the assay was terminated and percent cyotoxicities calculated.

human prostate (DU145) = experiment: MTT cytotoxicity assay, human prostate (DU145); assay type: cell-based
Method: as §1

human colon (HT29) = experiment: MTT cytotoxicity assay, human colon (HT29); assay type: cell-based
Method: as §1

human lung (L132) = experiment: MTT cytotoxicity assay, human lung (L132); assay type: cell-based
Method: as §1

lymphoma cells (U937) = experiment: MTT cytotoxicity assay, lymphoma cells (U937); assay type: cell-based, human
Method: as §1

leukemia cells (MOLT-4) = experiment: MTT cytotoxicity assay, leukemia cells (MOLT-4); assay type: cell-based, human
Method: as §1

[1] = tested on: ovarian cancer cells (PA-1); experiment: MTT cytotoxicity assay, ovarian cancer cells (PA-1); assay type: cell-based, human
Method: as §1

Structure (SMILES) | ED50 Larynx Hep. 2 (human larynx (HeP.2)) [µg/mL] | ED50 Prostate DU 145 (human prostate (DU145)) [µg/mL] | ED50 Colon HT-29 (human colon (HT29)) [µg/mL] | ED50 Lung L 132 (human lung (L132)) [µg/mL] | ED50 Lymphoma U937 (lymphoma cells (U937)) [µg/mL] | ED50 Leukemia MOLT-4 (leukemia cells (MOLT-4)) [µg/mL] | ED50 Ovary PA-I [1] [µg/mL]
C=C(C)[C@@H]1CC[C@]2(C(=O)O)CC[C@]3(C)[C@H](CC[C@@H]4[C@@]5(C)CC[C@H](O)C(C)(C)[C@@H]5CC[C@]43C)[C@@H]12 [BA] | >10 | >10 | 1.8 (≈ 3.94 µM) | 3.2 (≈ 7.01 µM) | 0.7 (≈ 1.53 µM) | 1.9 (≈ 4.16 µM) | 17 (≈ 37.2 µM)
C=C(C)C1CCC2(C(=O)O)CCC3(C)C(CCC4C5(C)CCC(OS(C)(=O)=O)C(C)(C)C5CCC43C)C12 (centres unmarked) [Derivative 751] | 7.0 (≈ 13.1 µM) | >10 | – | 5 (≈ 9.35 µM) | >4 | 0.65 (≈ 1.22 µM) | –
CC(C)C1CCC2(C(=O)O)CCC3(C)C(CCC4C5(C)CCC(OS(C)(=O)=O)C(C)(C)C5CCC43C)C12 (centres unmarked) [Derivative 789] | >10 | >10 | 1.4 (≈ 2.61 µM) | 6.5 (≈ 12.1 µM) | 1.4 (≈ 2.61 µM) | 2.0 (≈ 3.73 µM) | >4.0
CC(C)C1CCC2(C(=O)O)CCC3(C)C(CCC4C5(C)CCC(=NNC(=O)c6ccccc6)C(C)(C)C5CCC43C)C12 (centres unmarked) [Derivative 807] | 4.0 (≈ 6.96 µM) | >10 | – | <0.5 | – | 1.0 (≈ 1.74 µM) | 1.7 (≈ 2.96 µM)
CC(C)C1CCC2(C(=O)O)CCC3(C)C(CCC4C5(C)CCC(=NNc6ccc(F)cc6)C(C)(C)C5CCC43C)C12 (centres unmarked) [Derivative 829] | >10 | >10 | 1.3 (≈ 2.3 µM) | >4 | 0.5 (≈ 0.885 µM) | 0.4 (≈ 0.708 µM) | 0.5 (≈ 0.885 µM)
CC(C)C1CCC2(C(=O)O)CCC3(C)C(CCC4C5(C)CCC(NNc6ccccc6)C(C)(C)C5CCC43C)C12 (centres unmarked) [Derivative 878] | 2.25 (≈ 4.1 µM) | – | 1.75 (≈ 3.19 µM) | 0.8 (≈ 1.46 µM) | 0.4 (≈ 0.729 µM) | 1.6 (≈ 2.92 µM) | 3.5 (≈ 6.38 µM)
COc1ccc(NNC2CCC3(C)C(CCC4(C)C3CCC3C5C(C(C)C)CCC5(C(=O)O)CCC34C)C2(C)C)cc1 (centres unmarked) [Derivative 912] | 7.0 (≈ 12.1 µM) | 8.5 (≈ 14.7 µM) | 0.35 (≈ 0.605 µM) | >4 | 1.2 (≈ 2.07 µM) | 1.0 (≈ 1.73 µM) | –
C=C(C)C1CCC2(C(=O)O)CCC3(C)C(CCC4C5(C)CCC(OC(=O)c6cc(F)cc(F)c6)C(C)(C)C5CCC43C)C12 (centres unmarked) [Derivative 935] | >10 | 3.2 (≈ 5.36 µM) | >10 | 1.2 (≈ 2.01 µM) | 2.6 (≈ 4.36 µM) | 0.6 (≈ 1.01 µM) | –
CC(C)C1CCC2(C(=O)O)CCC3(C)C(CCC4C5(C)CCC(OC(=O)c6ccc(F)cc6F)C(C)(C)C5CCC43C)C12 (centres unmarked) [Derivative 937] | 5.9 (≈ 9.85 µM) | 2.5 (≈ 4.17 µM) | 1.7 (≈ 2.84 µM) | 1.1 (≈ 1.84 µM) | 1.2 (≈ 2 µM) | 0.9 (≈ 1.5 µM) | 1.6 (≈ 2.67 µM)
C=C(C)C1CCC2(C(=O)O)CCC3(C)C(CCC4C5(C)CCC(OC(=O)c6cccc(C(F)(F)F)c6)C(C)(C)C5CCC43C)C12 (centres unmarked) [Derivative 939] | 4.0 (≈ 6.36 µM) | >10 | >10 | 2.7 (≈ 4.29 µM) | 5.7 (≈ 9.06 µM) | 1.4 (≈ 2.23 µM) | >4.0
CC(C)C1CCC2(C(=O)O)CCC3(C)C(CCC4C5(C)CCC(OC(=O)c6cccc(C(F)(F)F)c6)C(C)(C)C5CCC43C)C12 (centres unmarked) [Derivative 940] | 5.4 (≈ 8.56 µM) | >4 | >10 | 2.6 (≈ 4.12 µM) | 0.8 (≈ 1.27 µM) | 0.4 (≈ 0.634 µM) | 3.8 (≈ 6.02 µM)
C=C(C)C1CCC2(C(=O)O)CCC3(C)C(CCC4C5(C)CCC(OC(=O)c6ccccc6C(F)(F)F)C(C)(C)C5CCC43C)C12 (centres unmarked) [Derivative 942] | 10.0 (≈ 15.9 µM) | >10 | >10 | 4.0 (≈ 6.36 µM) | 2.2 (≈ 3.5 µM) | 0.5 (≈ 0.795 µM) | >4.0
CC(C)C1CCC2(C(=O)O)CCC3(C)C(CCC4C5(C)CCC(OC(=O)c6ccccc6C(F)(F)F)C(C)(C)C5CCC43C)C12 (centres unmarked) [Derivative 943] | 2.0 (≈ 3.17 µM) | >4 | >10 | 4.0 (≈ 6.34 µM) | 3.2 (≈ 5.07 µM) | 1.6 (≈ 2.54 µM) | >4.0
CC(C)C1CCC2(C(=O)O)CCC3(C)C(CCC4C5(C)CCC(N=Cc6ccc(F)c(F)c6)C(C)(C)C5CCC43C)C12 (centres unmarked) [Derivative 998] | 3.0 (≈ 5.16 µM) | 2.2 (≈ 3.78 µM) | 4.0 (≈ 6.87 µM) | 2.5 (≈ 4.3 µM) | 1.6 (≈ 2.75 µM) | 1.9 (≈ 3.27 µM) | 1.2 (≈ 2.06 µM)
CC(C)C1CCC2(C(=O)O)CCC3(C)C(CCC4C5(C)CCC(NC(=O)CCl)C(C)(C)C5CCC43C)C12 (centres unmarked) [Derivative 1022] | 3.5 (≈ 6.55 µM) | >10 | >10 | 4.7 (≈ 8.8 µM) | 5.5 (≈ 10.3 µM) | 1.8 (≈ 3.37 µM) | 0.6 (≈ 1.12 µM)
COC(=O)COC(=O)C12CCC(C(C)C)C1C1CCC3C4(C)CCC(NC(C)=O)C(C)(C)C4CCC3(C)C1(C)CC2 (centres unmarked) [Derivative 1025] | >10 | >4 | >10 | 3.2 (≈ 5.6 µM) | >10 | 1.0 (≈ 1.75 µM) | >4.0
C=C(C)C1CCC2(C(=O)OCC(=O)OC)CCC3(C)C(CCC4C5(C)CCC(NCCO)C(C)(C)C5CCC43C)C12 (centres unmarked) [Derivative 1027] | 4.2 (≈ 7.34 µM) | 5.7 (≈ 9.97 µM) | 7.2 (≈ 12.6 µM) | 7.0 (≈ 12.2 µM) | 4.5 (≈ 7.87 µM) | 2.0 (≈ 3.5 µM) | >4.0
CC(C)C1CCC2(C(=O)O)CCC3(C)C(CCC4C5(C)CCC(N=Cc6ccc(F)cc6F)C(C)(C)C5CCC43C)C12 (centres unmarked) [Derivative 1065] | 2.6 (≈ 4.47 µM) | 2.5 (≈ 4.3 µM) | 4.9 (≈ 8.42 µM) | 3.4 (≈ 5.84 µM) | 1.9 (≈ 3.27 µM) | 1.0 (≈ 1.72 µM) | 1.4 (≈ 2.41 µM)
C=CC(=O)OC(=O)C12CCC(C(=C)C)C1C1CCC3C4(C)CCC(O)C(C)(C)C4CCC3(C)C1(C)CC2 (centres unmarked) [Derivative 1101] | 1.6 (≈ 3.13 µM) | >10 | >10 | 1.7 (≈ 3.33 µM) | 1.2 (≈ 2.35 µM) | 1.9 (≈ 3.72 µM) | 3.5 (≈ 6.85 µM)
C=CC(=O)OC(=O)C12CCC(C(C)C)C1C1CCC3C4(C)CCC(O)C(C)(C)C4CCC3(C)C1(C)CC2 (centres unmarked) [Derivative 1103] | 3.0 (≈ 5.85 µM) | >4 | 10.0 (≈ 19.5 µM) | 4.0 (≈ 7.8 µM) | 1.0 (≈ 1.95 µM) | 1.9 (≈ 3.71 µM) | 1.5 (≈ 2.93 µM)
C=C(C)C1CCC2(C(=O)O)CCC3(C)C(CCC4C5(C)CCC(OC(=O)c6ccc(CCCCC)cc6)C(C)(C)C5CCC43C)C12 (centres unmarked) [Derivative 1104] | 1.7 (≈ 2.69 µM) | 2.0 (≈ 3.17 µM) | 3.5 (≈ 5.55 µM) | 5.9 (≈ 9.35 µM) | 1.1 (≈ 1.74 µM) | 1.5 (≈ 2.38 µM) | 0.8 (≈ 1.27 µM)
C=C(C)C1CCC2(C(=O)O)CCC3(C)C(CCC4C5(C)CCC(OC(=O)Cc6cc(OC)ccc6OC)C(C)(C)C5CCC43C)C12 (centres unmarked) [Derivative 1108] | 1.7 (≈ 2.68 µM) | >4 | >10 | 4.6 (≈ 7.25 µM) | 1.0 (≈ 1.58 µM) | 1.5 (≈ 2.36 µM) | 1.3 (≈ 2.05 µM)
C=C(C)C1CCC2(C(=O)O)CCC3(C)C(CCC4C5(C)CCC(OC(=O)c6ccc(CCCCCCC)cc6)C(C)(C)C5CCC43C)C12 (centres unmarked) [Derivative 1138] | 2.0 (≈ 3.03 µM) | >10 | >10 | 7.0 (≈ 10.6 µM) | 1.1 (≈ 1.67 µM) | 2.0 (≈ 3.03 µM) | 1.3 (≈ 1.97 µM)
C=C(C)C1CCC2(C(=O)O)CCC3(C)C(CCC4C5(C)CCC(OC(=O)C67CCC(C(C)C)C6C6CCC8C9(C)CC(Br)C(=O)C(C)(C)C9CCC8(C)C6(C)CC7)C(C)(C)C5CCC43C)C12 (centres unmarked) [Derivative 1155] | >10 | >10 | >10 | >10 | >10 | 1.1 (≈ 1.13 µM) | >4.0
